# Data taken from patent publication US20240158418A1 (C4 Therapeutics, Inc., priority 2021, published 2024).
# Biological target: T1, EGFR L858R-T790M (Homo sapiens, UniProt P00533, L858R/T790M)
# T1 construct: NCI-H1975 (harboring EGFR heterozygous L858R-T790M mutations); host or cells: NCI-H1975
# Assay: EGFR degradation, Total EGFR (L858R-specific) HTRF, NCI-H1975
# Format: cell-based
# Conditions: Table 9A; NCI-H1975 cells, 6 hours, Total EGFR HTRF; read-out: H1975 EGFR DC50
# Excerpt: NCI-H1975 (harboring EGFR heterozygous L858R-T790M mutations) and NCI-H3255 (harboring EGFR heterozygous L858R mutation) were purchased from ATCC and NCI, respectively. NCI-H1975+CS (harboring EGFR heterozygous L858R-T790M-C797S mutations) was generated using CRISPR technology to introduce the additional C797S mutation by Horizon Discovery. A431 (harboring EGFR wildtype) was purchased from ATCC. RPMI 1640 no-phenol red medium and fetal bovine serum (FBS) were purchased from Gibco (Grand Island, NY, USA). Cell culture flasks and 384-well microplates were acquired from VWR (Radnor, PA, USA). Phosphorylated (pY1068) EGFR and Total EGFR (using L858R-specific detection antibody and pan-EGFR antibody for EGFR mutant cell lines and EGFR wild-type cell lines, respectively) HTRF assay kits were purchased from Cisbio (Bedford, MA, USA).
# Degradation of EGFR protein containing L858R mutation or wild-type was determined based on quantification of FRET signal using a Total EGFR (L858R-specific or pan-EGFR detecting) HTRF assay kit. Phospho-EGFR (pEGFR) inhibition was determined based on quantification of FRET signal using a pY1068 EGFR HTRF assay kit. In separate assay plates, test compounds were added to the 384-well plate from a top concentration of 10 μM with 11 points, half log titration in duplicates. For each assay, 12.5 uL of cells suspended in assay media (RPMI 1640 no-phenol red medium+10% FBS) at cell densities indicated for each cell line in Table 8 below were dispensed using a multi-channel pipette to 384-well low volume white HTRF microplates containing a duplicate concentration range of test compounds and DMSO controls. The plates were kept at 37° C. with 5% CO2 for 6 hours and then incubated with either phospho EGFR or Total EGFR HTRF detection antibodies according to the cell line and EGFR mutant being assayed. Cells treated in the absence of the test compound were the negative control. Positive control was set by wells containing all reagents but no cells. FRET signal was acquired on EnVision™ Multilabel Reader (PerkinElmer, Santa Clara, CA, USA). Compound concentration that achieves 50% degradation and inhibition was reported as DC50 and IC50, respectively.
# T1 sequence (P00533 25-1210 T790M/L858R): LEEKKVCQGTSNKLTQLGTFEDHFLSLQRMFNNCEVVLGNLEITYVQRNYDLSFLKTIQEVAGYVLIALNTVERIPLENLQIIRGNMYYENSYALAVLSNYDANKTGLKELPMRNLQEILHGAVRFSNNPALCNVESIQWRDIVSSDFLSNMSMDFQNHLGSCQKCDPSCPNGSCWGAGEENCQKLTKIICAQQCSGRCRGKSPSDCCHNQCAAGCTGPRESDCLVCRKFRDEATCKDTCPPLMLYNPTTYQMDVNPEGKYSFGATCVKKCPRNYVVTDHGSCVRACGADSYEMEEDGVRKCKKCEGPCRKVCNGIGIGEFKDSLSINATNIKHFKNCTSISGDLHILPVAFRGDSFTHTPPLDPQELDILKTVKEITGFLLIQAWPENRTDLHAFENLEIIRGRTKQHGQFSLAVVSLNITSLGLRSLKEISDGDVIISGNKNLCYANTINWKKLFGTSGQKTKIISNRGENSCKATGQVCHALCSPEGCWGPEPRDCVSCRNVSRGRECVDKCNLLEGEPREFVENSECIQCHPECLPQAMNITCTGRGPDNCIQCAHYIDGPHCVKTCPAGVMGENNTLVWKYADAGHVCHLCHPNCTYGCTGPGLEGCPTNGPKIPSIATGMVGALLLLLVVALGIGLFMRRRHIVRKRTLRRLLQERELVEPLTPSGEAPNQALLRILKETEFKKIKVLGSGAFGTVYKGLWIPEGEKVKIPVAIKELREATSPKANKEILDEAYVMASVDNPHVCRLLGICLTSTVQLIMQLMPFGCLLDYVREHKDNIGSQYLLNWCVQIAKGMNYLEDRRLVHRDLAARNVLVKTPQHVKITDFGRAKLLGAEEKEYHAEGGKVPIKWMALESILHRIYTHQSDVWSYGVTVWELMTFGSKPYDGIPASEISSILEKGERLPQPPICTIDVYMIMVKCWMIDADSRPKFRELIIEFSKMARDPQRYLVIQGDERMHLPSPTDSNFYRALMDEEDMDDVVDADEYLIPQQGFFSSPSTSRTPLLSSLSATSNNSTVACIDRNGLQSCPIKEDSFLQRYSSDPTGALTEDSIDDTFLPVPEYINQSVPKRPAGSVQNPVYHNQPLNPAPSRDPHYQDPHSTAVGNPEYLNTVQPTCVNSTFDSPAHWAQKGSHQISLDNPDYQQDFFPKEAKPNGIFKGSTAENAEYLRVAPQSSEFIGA
row,DC50,Compound
1,< 50 nM,"O=C1CCC(Nc2ccc(N3CCC(O)(CC(=O)N4CCN(c5ccc(-c6cc(F)c7c(c6)C(=O)N(C(C(=O)Nc6nccs6)c6ncn8c6CCC8)C7)cc5)CC4)CC3)c(C(F)(F)F)c2)C(=O)N1 (stereo not shown) [Compound 18, 2-(6,7-dihydro-5H-pyrrolo[1,2-c]imidazol-1-yl)-2-(6-(4-(4-(2-(1-(4-((2,6-dioxopiperidin-3-yl)amino)-2-(trifluoromethyl)phenyl)-4-hydroxypiperidin-4-yl)acetyl)piperazin-1-yl)phenyl)-4-fluoro-1-oxoisoindolin-2-yl)-N-(thiazol-2-yl)acetamide]"
2,50 to 150 nM,"O=C1NC(=O)C2(Nc3ccc(C4CCN(CC(=O)N5CCC(Oc6ccc(-c7cc(F)c8c(c7)C(=O)N(C(C(=O)Nc7nccs7)c7ncn9c7CCC9)C8)cc6)CC5)CC4)cc3)CC1C2 (stereo not shown) [Compound 38, 2-(6,7-dihydro-5H-pyrrolo[1,2-c]imidazol-1-yl)-2-(6-(4-((1-(2-(4-(4-((2,4-dioxo-3-azabicyclo[3.1.1]heptan-1-yl)amino)phenyl)piperidin-1-yl)acetyl)piperidin-4-yl)oxy)phenyl)-4-fluoro-1-oxoisoindolin-2-yl)-N-(thiazol-2-yl)acetamide]"
3,50 to 150 nM,"O=C1CCC(Nc2ccc(C3CCN(CC(=O)N4CCN(c5ccc(-c6cc(F)c7c(c6)C(=O)N(C(C(=O)Nc6nccs6)c6ncn8c6CCC8)C7)cc5)CC4)CC3)cc2F)C(=O)N1 (stereo not shown) [Compound 13, 2-(6,7-dihydro-5H-pyrrolo[1,2-c]imidazol-1-yl)-2-[6-[4-[4-[2-[4-[4-[(2,6-dioxo-3-piperidyl)amino]-3-fluoro-phenyl]-1-piperidyl]acetyl]piperazin-1-yl]phenyl]-4-fluoro-1-oxo-isoindolin-2-yl]-N-thiazol-2-yl-acetamide]"
4,< 50 nM,"Cn1nc(N2CCC(=O)NC2=O)c2ccc(C3CCN(CC(=O)N4CC5(C4)CN(c4ccc(-c6cc(F)c7c(c6)C(=O)N(C(C(=O)Nc6ccccn6)c6ncn8c6CCC8)C7)cc4)C5)CC3)cc21 (stereo not shown) [Compound 54, 2-(6,7-dihydro-5H-pyrrolo[1,2-c]imidazol-1-yl)-2-[6-[4-[2-[2-[4-[3-(2,4-dioxohexahydropyrimidin-1-yl)-1-methyl-indazol-6-yl]-1-piperidyl]acetyl]-2,6-diazaspiro[3.3]heptan-6-yl]phenyl]-4-fluoro-1-oxo-isoindolin-2-yl]-N-(2-pyridyl)acetamide]"

# Same assay, conditions: Table 9B; NCI-H1975 cells, 6 hours, Total EGFR HTRF; read-out: H1975 EGFR DC50
row,DC50,Compound
1,< 50 nM,"O=C1CCC(Nc2cc(F)c(N3CCC(O)(CC(=O)N4CC5(C4)CN(c4ccc(-c6cc(F)c7c(c6)C(=O)N(C(C(=O)Nc6nccs6)c6ncn8c6CCC8)C7)cc4)C5)CC3)cc2F)C(=O)N1 (stereo not shown) [Compound 135, 2-(6,7-dihydro-5H-pyrrolo[1,2-c]imidazol-1-yl)-2-[6-[4-[2-[2-[1-[4-[(2,6-dioxo-3-piperidyl)amino]-2,5-difluoro-phenyl]-4-hydroxy-4-piperidyl]acetyl]-2,6-diazaspiro[3.3]heptan-6-yl]phenyl]-4-fluoro-1-oxo-isoindolin-2-yl]-N-thiazol-2-yl-acetamide]"
2,< 50 nM,"Cn1nc(N2CCC(=O)NC2=O)c2ccc([C@H]3CCN(C(=O)CN4CCC5(CC4)CN(c4ccc(-c6cc(F)c7c(c6)C(=O)N(C(C(=O)Nc6nccs6)c6ncn8c6CCC8)C7)cc4)C5)CC3(F)F)cc21 (stereo partly drawn) [Compound 140, 2-(6,7-dihydro-5H-pyrrolo[1,2-c]imidazol-1-yl)-2-[6-[4-[7-[2-[(4R)-4-[3-(2,4-dioxohexahydropyrimidin-1-yl)-1-methyl-indazol-6-yl]-3,3-difluoro-1-piperidyl]-2-oxo-ethyl]-2,7-diazaspiro[3.5]nonan-2-yl]phenyl]-4-fluoro-1-oxo-isoindolin-2-yl]-N-thiazol-2-yl-acetamide]"
3,< 50 nM,"Cn1nc(N2CCC(=O)NC2=O)c2ccc(C3CCN(C(=O)C4CC5(C4)CN(c4ccc(-c6cc(F)c7c(c6)C(=O)N(C(C(=O)Nc6nccs6)c6ncn8c6CCC8)C7)cc4)C5)CC3(F)F)cc21 (stereo not shown) [Compound 155, 2-(6,7-dihydro-5H-pyrrolo[1,2-c]imidazol-1-yl)-2-[6-[4-[6-[4-[3-(2,4-dioxohexahydropyrimidin-1-yl)-1-methyl-indazol-6-yl]-3,3-difluoro-piperidine-1-carbonyl]-2-azaspiro[3.3]heptan-2-yl]phenyl]-4-fluoro-1-oxo-isoindolin-2-yl]-N-thiazol-2-yl-acetamide]"
4,< 50 nM,"Cn1nc(N2CCC(=O)NC2=O)c2ccc(N3CCC(O)(CC(=O)N4CC5(C4)CN(c4ccc(-c6cc(F)c7c(c6)C(=O)N(C(C(=O)Nc6nccs6)c6ncn8c6CCC8)C7)cc4)C5)CC3)cc21 (stereo not shown) [Compound 109, 2-(6,7-dihydro-5H-pyrrolo[1,2-c]imidazol-1-yl)-2-(6-(4-(6-(2-(1-(3-(2,4-dioxotetrahydropyrimidin-1(2H)-yl)-1-methyl-1H-indazol-6-yl)-4-hydroxypiperidin-4-yl)acetyl)-2,6-diazaspiro[3.3]heptan-2-yl)phenyl)-4-fluoro-1-oxoisoindolin-2-yl)-N-(thiazol-2-yl)acetamide]"
5,< 50 nM,"O=C1CC[C@H](Nc2ccc(N3CCC(O)(CC(=O)N4CC5(C4)CN(c4ccc(-c6cc(Cl)c7c(c6)C(=O)N(C(C(=O)Nc6nccs6)c6ncn8c6CCC8)C7)cc4)C5)CC3)c(F)c2)C(=O)N1 (stereo partly drawn) [Compound 136, 2-[4-chloro-6-[4-[2-[2-[1-[4-[[(3S)-2,6-dioxo-3-piperidyl]amino]-2-fluoro-phenyl]-4-hydroxy-4-piperidyl]acetyl]-2,6-diazaspiro[3.3]heptan-6-yl]phenyl]-1-oxo-isoindolin-2-yl]-2-(6,7-dihydro-5H-pyrrolo[1,2-c]imidazol-1-yl)-N-thiazol-2-yl-acetamide]"
6,< 50 nM,"O=C1CCC(Nc2ccc(N3CCC(O)(CC(=O)N4CC5(C4)CN(c4ccc(-c6cc(F)c7c(c6)C(=O)N(C(C(=O)Nc6nccs6)c6ncn8c6CCC8)C7)cc4)C5)CC3)c(F)c2)C(=O)N1 (stereo not shown) [Compound 89, 2-(6,7-dihydro-5H-pyrrolo[1,2-c]imidazol-1-yl)-2-(6-(4-(6-(2-(1-(4-((2,6-dioxopiperidin-3-yl)amino)-2-fluorophenyl)-4-hydroxypiperidin-4-yl)acetyl)-2,6-diazaspiro[3.3]heptan-2-yl)phenyl)-4-fluoro-1-oxoisoindolin-2-yl)-N-(thiazol-2-yl)acetamide]"
7,< 50 nM,"O=C1CC[C@H](Nc2ccc(N3CCC(O)(CC(=O)N4CC5(C4)CN(c4ccc(-c6cc(F)c7c(c6)C(=O)N(C(C(=O)Nc6nccs6)c6ncn8c6C[C@@H](F)C8)C7)cc4)C5)CC3)c(F)c2)C(=O)N1 (stereo partly drawn) [Compound 131, 2-[6-[4-[2-[2-[1-[4-[[(3S)-2,6-dioxo-3-piperidyl]amino]-2-fluoro-phenyl]-4-hydroxy-4-piperidyl]acetyl]-2,6-diazaspiro[3.3]heptan-6-yl]phenyl]-4-fluoro-1-oxo-isoindolin-2-yl]-2-[(6R)-6-fluoro-6,7-dihydro-5H-pyrrolo[1,2-c]imidazol-1-yl]-N-thiazol-2-yl-acetamide]"
8,< 50 nM,"Cn1nc(N2CCC(=O)NC2=O)c2cc(F)c(N3CCN(CC(=O)N4CC5(C4)CN(c4ccc(-c6cc(F)c7c(c6)C(=O)N(C(C(=O)Nc6nccs6)c6ncn8c6CCC8)C7)cc4)C5)CC3)cc21 (stereo not shown) [Compound 123, 2-(6,7-dihydro-5H-pyrrolo[1,2-c]imidazol-1-yl)-2-[6-[4-[2-[2-[4-[3-(2,4-dioxohexahydropyrimidin-1-yl)-5-fluoro-1-methyl-indazol-6-yl]piperazin-1-yl]acetyl]-2,6-diazaspiro[3.3]heptan-6-yl]phenyl]-4-fluoro-1-oxo-isoindolin-2-yl]-N-thiazol-2-yl-acetamide]"
9,< 50 nM,"O=C1CCC(Nc2ccc(N3CCC(O)(CC(=O)N4CC5(CCN(c6ccc(-c7cc(F)c8c(c7)C(=O)N(C(C(=O)Nc7nccs7)c7ncn9c7CCC9)C8)cc6)CC5)C4)CC3)c(Cl)c2)C(=O)N1 (single isomer, unassigned; isomer 1) [Compound 128, 2-[6-[4-[2-[2-[1-[2-chloro-4-[[2,6-dioxo-3-piperidyl]amino]phenyl]-4-hydroxy-4-piperidyl]acetyl]-2,7-diazaspiro[3.5]nonan-7-yl]phenyl]-4-fluoro-1-oxo-isoindolin-2-yl]-2-(6,7-dihydro-5H-pyrrolo[1,2-c]imidazol-1-yl)-N-thiazol-2-yl-acetamide, isomer 1]"
